Data as given in patent publication US7649002B2, “(3,5-dimethylpiperidin-1yl)(4-phenylpyrrolidin-3-yl)methanone derivatives as MCR4 agonists” (Pfizer Inc, priority 2004, dated 2010).
Read-outs that look alike come from different tables or passages of the source.

Target: T1, human MCR4 receptor (Homo sapiens, UniProt P32245)
T1 construct: expressed in transfected cells
Assay: MCR4 improved functional assay (Protocol E): CHO-K1-MC4R-CRE-β-lactamase reporter
Type: cell-based
Text: (ii) MCR5 Standard Functional Assay Methodology and MCR4 Improved Functional Assay Methodology [Assay Protocol D and E Respectively] […] These cell lines were engineered using protocols akin to those outlined by Zaccolo et al (Zaccolo, M., (2000) Nature, 2(1); 25-29). Compound-induced activation of the MCR5 or MCR4 receptors in these two cell lines stimulated the production, and intracellular accumulation, of the enzyme β-lactamase. The quantity of β-lactamase enzyme produced was directly proportional to the degree to which the test compound activated the MCR5 or MCR4 receptors present on these cells and was quantified using the P-lactamase gene reporter analysis kit that is commercially available from Invitrogen Life Technologies. An in-depth description of this technology and assay protocols are available from the Invitrogen web site (www.invitrogen.com). The protocol listed below provides a summary of that assay methodology. The quantity of β-lactamase enzyme produced by compound-induced activation of the MCR5 or MCR4 receptors expressed in these cell lines was quantified using a LjI Biosystems Analyst™ HT 96.384 plate reader set to excite at a wave length of 405 nm, and measure the energy emitted at wave lengths of 450 nm and 530 nm. Cellular responses were quantified by dividing the measured energy emitted at a wavelength of 450 nm by the measured energy emitted at a wavelength of 530 nm. […] CCF4-AM was dissolved in 100% DMSO to give a final solution concentration of 1 mM. This solution was termed Solution A. Probenecid was dissolved in 200 mM NaOH to give a final solution concentration of 200 mM. This solution was termed Solution D. Composition of the β-lactamase assay dye solution: for 1072 μL of assay dye solution combine: 12 μL of Solution A, 60 μL of Solution B, 925 μL of Solution C and 75 μL of Solution D. […] Cells were grown in T225 vent cap flasks containing 50 ml of growth medium and maintained in a cell incubator at a temperature of 37° C. and in an environment containing 5% CO2. The composition of the growth medium for the CHO-K1-MC5R-CRE-β-lactamase was 90% v/v DMEM supplemented with; Glutamax-1, 25 mM HEPES, 10% v/v foetal calf serum (FCS), 1 mM sodium pyruvate, 0.1 mM non essential amino acids and 800 μg/ml genetic in. For the CHO-K1-MC4R-CRE-β-lactamase this growth media was further supplemented with […] Zeocin. Cells were harvested when they reached 80-90% confluency by first removing the existing growth medium and then washing with PBS that had been pre-warmed to a temperature of 37° C. This PBS was then removed and 5 ml of cell dissociation fluid added to the flask. These cells were incubated for 5 minutes in a cell incubator set at a temperature of 37° C. and in an environment containing 5% CO2 to detach the cells. When cells were detached, pre-warmed growth media was added, the cells re-suspended and mixed gently to achieve a single cell suspension by pipetting. This cell suspension was then used for experimentation, or transferred into a new T225 flask to perpetuate the cell culture. […] For each assay the cell plates were then retuned to a cell incubator maintained at a temperature of 37° C. and in an environment containing 5% CO2 overnight before performing the assay on the second assay day. […] For the MCR4 improved functional assay methodology the solution of cyclohexamide was not added. Subsequently, 10 μL of the test compound solution was transferred to the assay plate. The assay plate was then transferred to a cell incubator, set at 37° C. and in an environment containing 5% CO2, and left for 4 hours for the MCR4 improved assay methodology, or 5 hours for the MCR5 standard assay methodology. After this incubation period the plate was removed from the incubator, 10 μL of the […] assay dye solution was added to each well and then the plate returned to the cell incubator.

[1] = Protocols C or E, read-out: functional potency at the MC4 receptor (EC50)

T1 sequence (P32245 whole entry): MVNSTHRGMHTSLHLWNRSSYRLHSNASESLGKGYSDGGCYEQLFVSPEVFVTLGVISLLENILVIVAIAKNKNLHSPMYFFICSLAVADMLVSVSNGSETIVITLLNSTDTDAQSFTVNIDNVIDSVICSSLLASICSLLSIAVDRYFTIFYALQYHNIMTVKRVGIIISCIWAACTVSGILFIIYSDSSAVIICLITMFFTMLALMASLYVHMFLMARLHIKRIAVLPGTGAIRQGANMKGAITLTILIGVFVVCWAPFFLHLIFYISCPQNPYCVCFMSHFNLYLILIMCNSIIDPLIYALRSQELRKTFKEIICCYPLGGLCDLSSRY

Row | SMILES | EC50 [1] | EC50 (Table 6, read-out: MCR4 EC50) | EC50 (MCR4 EC50 (nM), Table 6) | EC50 (functional potency at the MC4 receptor (EC50), Protocols C or E)
1 | CC(C)N1C[C@@H](C(=O)N2C[C@@H](C)[C@](O)(c3ccccc3)[C@@H](C)C2)[C@H](c2ccc(F)cc2F)C1.Cl [Example 6, (3R,4R,5S)-1-{[(3S,4R)-4-(2,4-Difluorophenyl)-1-isopropylpyrrolidin-3-yl]carbonyl}-3,5-dimethyl-4-phenylpiperidin-4-ol hydrochloride] |  |  | 19 nM | < 50 nM
2 | C[C@@H]1CN(C(=O)[C@@H]2CNC[C@H]2c2ccc(F)cc2F)C[C@H](C)[C@@]1(O)c1ccc(F)cc1.Cl [Example 12, (3R,4R,5S)-1-{[(3S,4R)-4-(2,4-difluorophenyl)pyrrolidin-3-yl]carbonyl}-4-(4-fluorophenyl)-3,5-dimethylpiperidin-4-ol hydrochloride] | < 150 nM | 75 nM |  | 
3 | C[C@@H]1CN(C(=O)[C@@H]2CN(c3ccccn3)C[C@H]2c2ccc(F)cc2F)C[C@H](C)[C@@]1(O)c1ccccc1.Cl [Example 31, (3R,4R,5S)-1-{[(3S,4R)-4-(2,4-difluorophenyl)-1-pyridin-2-ylpyrrolidin-3-yl]carbonyl}-3,5-dimethyl-4-phenylpiperidin-4-ol hydrochloride] | < 10 nM | 3.6 nM |  | 
4 | C[C@@H]1CN(C(=O)[C@@H]2CN(c3cccnn3)C[C@H]2c2ccc(F)cc2F)C[C@H](C)[C@@]1(O)c1ccccc1.Cl [Example 35, (3R,4R,5S)-1-{[(3S,4R)-4-(2,4-difluorophenyl)-1-pyridazin-3-ylpyrrolidin-3-yl]carbonyl}-3,5-dimethyl-4-phenylpiperidin-4-ol hydrochloride] | < 10 nM | 1.5 nM |  | 

Second part, led by results:

Row | EC50 [1] | EC50 (Table 6, read-out: MCR4 EC50) | SMILES | EC50 (MCR4 EC50 (nM), Table 6) | EC50 (functional potency at the MC4 receptor (EC50), Protocols C or E)
5 | < 10 nM |  | C[C@@H]1CN(C(=O)[C@@H]2CN(C(C)(C)C)C[C@H]2c2ccc(F)cc2F)C[C@H](C)[C@@]1(O)c1ccccc1 [Example 1, (3R,4R,5S)-1-{[(3S,4R)-1-tert-Butyl-4-(24-difluorophenyl)pyrrolidin-3-yl]carbonyl}-3,5-dimethyl-4-phenylpiperidin-4-ol] |  | 
6 | < 10 nM | 9.6 nM | C[C@@H]1CN(C(=O)[C@@H]2CN(C(C)(C)C)C[C@H]2c2ccc(F)cc2F)C[C@H](C)[C@@]1(O)c1ccccc1.Cl [Example 5, (3R,4R,5S)-1-{[(3S,4R)-1-tert-Butyl-4-(2,4-difluorophenyl)pyrrolidin-3-yl]carbonyl}-3,5-dimethyl-4-phenylpiperidin-4-ol hydrochloride] |  | 
7 | < 50 nM | 27 nM | C[C@@H]1CN(C(=O)[C@@H]2CN(C(C)(C)C)C[C@H]2c2ccc(F)cc2F)C[C@H](C)[C@@]1(O)c1ccc(Cl)cc1.Cl [Example 13, (3R,4R,5S)-1-{[(3S,4R)-1-tert-butyl-4-(2,4-difluorophenyl)pyrrolidin-3-yl]carbonyl}-4-(4-chlorophenyl)-3,5-dimethylpiperidin-4-ol hydrochloride] |  | 
